From ChEMBL document CHEMBL5131538 (J Med Chem, 2022)

Key:
[1] = target: T1, Mineralocorticoid receptor (Rattus norvegicus, UniProt P22199)
T1 sequence (P22199 whole entry): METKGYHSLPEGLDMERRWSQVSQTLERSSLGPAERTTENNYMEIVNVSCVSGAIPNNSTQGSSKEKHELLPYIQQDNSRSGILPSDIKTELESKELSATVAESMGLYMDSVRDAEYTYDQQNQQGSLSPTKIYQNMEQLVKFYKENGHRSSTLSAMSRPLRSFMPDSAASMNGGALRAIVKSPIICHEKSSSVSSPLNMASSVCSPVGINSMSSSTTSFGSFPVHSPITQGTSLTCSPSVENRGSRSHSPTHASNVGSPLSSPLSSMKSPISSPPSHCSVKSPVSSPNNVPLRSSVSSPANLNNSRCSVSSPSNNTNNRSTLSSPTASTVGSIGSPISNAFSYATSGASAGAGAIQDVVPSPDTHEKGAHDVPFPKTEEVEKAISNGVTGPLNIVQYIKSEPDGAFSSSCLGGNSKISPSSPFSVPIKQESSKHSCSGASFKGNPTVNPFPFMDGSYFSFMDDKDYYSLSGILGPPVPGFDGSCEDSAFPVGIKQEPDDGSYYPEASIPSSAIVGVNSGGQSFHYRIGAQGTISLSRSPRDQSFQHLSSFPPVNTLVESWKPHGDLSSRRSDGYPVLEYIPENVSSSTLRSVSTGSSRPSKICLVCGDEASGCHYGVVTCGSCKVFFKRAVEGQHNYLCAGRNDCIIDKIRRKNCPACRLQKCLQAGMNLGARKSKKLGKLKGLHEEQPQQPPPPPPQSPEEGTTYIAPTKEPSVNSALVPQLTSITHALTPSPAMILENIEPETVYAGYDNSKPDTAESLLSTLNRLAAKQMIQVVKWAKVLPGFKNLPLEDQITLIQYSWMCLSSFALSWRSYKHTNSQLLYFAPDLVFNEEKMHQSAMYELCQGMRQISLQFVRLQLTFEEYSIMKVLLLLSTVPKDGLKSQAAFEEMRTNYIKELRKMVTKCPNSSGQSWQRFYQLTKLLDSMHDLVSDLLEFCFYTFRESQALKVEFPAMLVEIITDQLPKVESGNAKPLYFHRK
Description: Displacement of [3H]-aldosterone from rat mineralocorticoid receptor incubated overnight by liquid scintillation counting analysis

[2] = target: T2, Mineralocorticoid receptor (Homo sapiens, UniProt P08235); assay: biochemical
T2 sequence (P08235 whole entry): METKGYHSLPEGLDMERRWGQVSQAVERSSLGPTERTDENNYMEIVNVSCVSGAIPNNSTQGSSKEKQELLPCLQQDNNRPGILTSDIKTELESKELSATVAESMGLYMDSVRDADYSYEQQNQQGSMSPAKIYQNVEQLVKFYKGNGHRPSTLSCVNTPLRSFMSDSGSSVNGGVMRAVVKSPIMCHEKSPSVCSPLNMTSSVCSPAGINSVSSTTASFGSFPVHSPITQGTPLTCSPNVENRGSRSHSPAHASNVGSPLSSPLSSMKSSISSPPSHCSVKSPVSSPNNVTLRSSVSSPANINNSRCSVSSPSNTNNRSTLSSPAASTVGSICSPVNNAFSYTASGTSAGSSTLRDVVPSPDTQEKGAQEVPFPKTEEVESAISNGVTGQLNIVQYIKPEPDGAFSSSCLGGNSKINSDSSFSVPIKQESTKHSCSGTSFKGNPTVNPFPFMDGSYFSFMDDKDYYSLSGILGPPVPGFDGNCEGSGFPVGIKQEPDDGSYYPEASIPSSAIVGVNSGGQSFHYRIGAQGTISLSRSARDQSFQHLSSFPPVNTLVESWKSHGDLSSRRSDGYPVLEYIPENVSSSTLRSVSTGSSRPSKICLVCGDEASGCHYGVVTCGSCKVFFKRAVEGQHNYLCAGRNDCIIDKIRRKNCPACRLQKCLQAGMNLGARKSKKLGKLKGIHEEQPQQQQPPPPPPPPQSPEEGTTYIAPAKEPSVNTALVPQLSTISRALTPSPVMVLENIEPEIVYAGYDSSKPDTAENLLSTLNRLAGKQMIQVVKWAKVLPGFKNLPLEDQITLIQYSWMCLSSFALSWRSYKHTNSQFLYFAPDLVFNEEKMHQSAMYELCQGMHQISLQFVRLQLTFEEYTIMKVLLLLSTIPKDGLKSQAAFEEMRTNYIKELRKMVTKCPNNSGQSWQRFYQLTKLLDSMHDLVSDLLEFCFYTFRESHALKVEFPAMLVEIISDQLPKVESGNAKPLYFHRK
Description: Displacement of [3H]-aldosterone from recombinant human mineralocorticoid receptor expressed in baculovirus infected insect cells incubated overnight by liquid scintillation counting analysis

Glucocorticoid receptor [3] = target: T3, Glucocorticoid receptor (Rattus norvegicus, UniProt P06536); assay: Displacement of [3H]-dexamethasone from rat glucocorticoid receptor incubated overnight by liquid scintillation counting analysis
T3 sequence (P06536 whole entry): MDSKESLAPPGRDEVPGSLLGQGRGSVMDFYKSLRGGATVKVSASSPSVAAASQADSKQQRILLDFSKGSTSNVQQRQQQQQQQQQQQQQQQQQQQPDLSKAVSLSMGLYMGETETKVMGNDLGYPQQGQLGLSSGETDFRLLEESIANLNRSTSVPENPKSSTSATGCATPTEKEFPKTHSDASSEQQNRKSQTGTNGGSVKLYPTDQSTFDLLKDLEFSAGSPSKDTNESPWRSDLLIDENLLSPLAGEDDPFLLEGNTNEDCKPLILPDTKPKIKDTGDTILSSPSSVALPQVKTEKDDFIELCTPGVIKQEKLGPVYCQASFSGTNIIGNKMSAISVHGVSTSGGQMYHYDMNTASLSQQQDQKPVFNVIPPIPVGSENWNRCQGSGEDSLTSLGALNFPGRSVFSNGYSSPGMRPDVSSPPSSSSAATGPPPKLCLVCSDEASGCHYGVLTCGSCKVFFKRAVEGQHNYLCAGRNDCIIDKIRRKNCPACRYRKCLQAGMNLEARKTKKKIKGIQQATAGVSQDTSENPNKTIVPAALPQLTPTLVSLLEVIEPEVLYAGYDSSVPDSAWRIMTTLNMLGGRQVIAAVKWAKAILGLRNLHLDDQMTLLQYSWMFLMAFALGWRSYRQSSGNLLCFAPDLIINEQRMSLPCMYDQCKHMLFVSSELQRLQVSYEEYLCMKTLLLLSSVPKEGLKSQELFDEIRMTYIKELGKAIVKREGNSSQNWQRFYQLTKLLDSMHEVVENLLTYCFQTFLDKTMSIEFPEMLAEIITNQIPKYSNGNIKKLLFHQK

[4] = target: T4, Mineralocorticoid receptor (Homo sapiens) (UniProt P08235); assay: Antagonist activity at human wild-type mineralocorticoid receptor expressed in CHO-K1 cells assessed as inhibition of aldosterone-induced transcriptional activity incubated for 24 hrs in presence of 1 nM aldosterone by Steady-Glo reagent based reporter gene assay relative to control; type: cell-based; parameters: scale not given: the % may be the effect or the level left; conditions: filed as antagonist
T4 sequence (whole entry): T2 sequence (P08235 whole entry)

CHO-K1 = assay: Antagonist activity at human mineralocorticoid receptor S810L mutant expressed in CHO-K1 cells assessed as inhibition of aldosterone-induced transcriptional activity at 300 nM incubated for 24 hrs in presence of aldosterone at 0.5 nM by reporter gene assay relative to control; type: cell-based; parameters: scale not given: the % may be the effect or the level left; conditions: filed as antagonist
Glucocorticoid receptor [5] = target: T5, Glucocorticoid receptor (Homo sapiens, UniProt P04150); assay: biochemical
T5 sequence (P04150 whole entry): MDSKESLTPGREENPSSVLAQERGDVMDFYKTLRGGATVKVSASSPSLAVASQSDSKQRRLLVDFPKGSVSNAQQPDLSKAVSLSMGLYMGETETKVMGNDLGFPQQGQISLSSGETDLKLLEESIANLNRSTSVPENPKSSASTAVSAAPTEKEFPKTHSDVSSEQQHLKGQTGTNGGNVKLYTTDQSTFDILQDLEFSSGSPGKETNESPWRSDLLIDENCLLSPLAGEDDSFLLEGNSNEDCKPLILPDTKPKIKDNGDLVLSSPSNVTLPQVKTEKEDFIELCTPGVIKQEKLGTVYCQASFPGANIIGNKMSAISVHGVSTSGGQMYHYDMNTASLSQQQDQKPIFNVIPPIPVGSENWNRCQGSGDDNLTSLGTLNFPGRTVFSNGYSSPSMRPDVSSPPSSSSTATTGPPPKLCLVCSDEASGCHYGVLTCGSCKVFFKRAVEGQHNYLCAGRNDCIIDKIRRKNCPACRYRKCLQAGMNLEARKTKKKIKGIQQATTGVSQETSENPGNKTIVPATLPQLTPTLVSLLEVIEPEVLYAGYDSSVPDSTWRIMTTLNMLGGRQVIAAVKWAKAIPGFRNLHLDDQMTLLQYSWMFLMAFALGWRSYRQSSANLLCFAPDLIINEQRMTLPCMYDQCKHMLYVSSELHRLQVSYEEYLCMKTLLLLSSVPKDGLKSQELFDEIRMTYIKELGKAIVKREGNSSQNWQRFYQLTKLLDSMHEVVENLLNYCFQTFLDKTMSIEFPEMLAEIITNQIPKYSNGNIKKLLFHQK
Description: Displacement of [3H]-dexamethasone from recombinant full length human glucocorticoid receptor expressed in baculovirus infected insect cells incubated overnight by liquid scintillation counting analysis

Compound | Ki [1] | Ki [2] | Ki (Glucocorticoid receptor [3]) | Activity [4] | IC50 (Glucocorticoid receptor [5]) | Activity (CHO-K1)
CS(=O)(=O)Nc1ccc2c(c1)OC1(CC1)C(=O)N2c1ccc(F)cc1 | 0.549 µM | 0.808 µM | > 100 µM | – | – | –
CC(C)(c1ccccc1)c1ccc(S(N)(=O)=O)cc1 | > 100 µM | – | > 100 µM | – | – | –
CC1Oc2cc(NS(C)(=O)=O)ccc2N(c2ccc(F)cc2)C1=O (centres undefined) | 0.201 µM | 0.16 µM | 136 µM | – | – | –
CNS(=O)(=O)c1ccc(C(C)(C)c2ccccc2)cc1 | 4.31 µM | 1.37 µM | > 100 µM | – | – | –
CS(=O)(=O)Nc1ccc2c(c1)OC(c1ccccc1)C(=O)N2c1ccc(F)cc1 (centres undefined) | 0.25 µM | 0.342 µM | 55.2 µM | – | – | –
CS(=O)(=O)Nc1ccc2c(c1)OCC(=O)N2c1ccc(F)cc1 | 1.75 µM | – | > 100 µM | – | – | –
CS(=O)(=O)Nc1ccc2c(c1)OC1(CCC1)C(=O)N2c1ccc(F)cc1 | 0.626 µM | 0.152 µM | > 100 µM | – | – | –
CN(c1ccccc1)c1ccc(NS(C)(=O)=O)cc1 | 0.853 µM | 0.735 µM | 47.2 µM | – | – | –
CS(=O)(=O)Nc1ccc(Nc2ccccc2)cc1 | > 100 µM | – | > 100 µM | – | – | –
CC(=O)Nc1ccc(C(C)(C)c2ccccc2)cc1 | > 100 µM | – | > 100 µM | – | – | –
CC(C)(c1ccccc1)c1ccc(NS(=O)(=O)C(F)(F)F)cc1 | > 100 µM | – | > 100 µM | – | – | –
CC(=O)S[C@@H]1CC2=CC(=O)CC[C@]2(C)[C@H]2CC[C@@]3(C)[C@@H](CC[C@@]34CCC(=O)O4)[C@H]12 [SPIRONOLACTONE] | – | – | – | 98.3% | 6.05 µM | 58.5%

Further molecules by falling Ki (Glucocorticoid receptor [3]), results first:

Ki [1] | Ki [2] | Ki (Glucocorticoid receptor [3]) | Activity [4] | IC50 (Glucocorticoid receptor [5]) | Compound | Activity (CHO-K1)
1.56 µM | 0.607 µM | 45 µM | – | – | CCN(c1ccccc1)c1ccc(NS(C)(=O)=O)cc1 | –
– | – | 43.2 µM | – | – | CC1(C)CN(c2ccc(F)cc2)c2ccc(NS(C)(=O)=O)cc2O1 | –
– | – | 41.5 µM | – | – | CS(=O)(=O)Nc1ccc(N(C(=O)c2ccccc2)c2ccc(F)cc2)cc1 | –
1.96 µM | 0.74 µM | 40 µM | – | – | CC(C)(c1ccccc1)c1ccc(NS(C)(=O)=O)cc1 | –
3.77 µM | 1.92 µM | 37.9 µM | – | – | CCS(=O)(=O)Nc1ccc(C(C)(C)c2ccccc2)cc1 | –
0.357 µM | 0.147 µM | 29.1 µM | – | – | CS(=O)(=O)Nc1ccc(N(Cc2ccccc2)c2ccccc2)cc1 | –
6.88 µM | – | 29 µM | – | – | CN(C)S(=O)(=O)Nc1ccc(C(C)(C)c2ccccc2)cc1 | –
5.67 µM | – | 25.4 µM | – | – | CC(=O)c1ccc(N(Cc2ccccc2)c2ccc(NS(C)(=O)=O)cc2)cc1 | –
1.24 µM | 1.27 µM | 22.2 µM | – | – | CS(=O)(=O)Nc1ccc(N(C(=O)c2ccccc2)c2ccccc2)cc1 | –
12 µM | – | 19.6 µM | – | – | CC(C)(c1ccccc1)c1cccc(NS(C)(=O)=O)c1 | –
